Results: ChEMBL document CHEMBL1201862, “PubChem BioAssay data set” (2004)
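96-well plates; 48 h exposure; 5 concentrations. Endpoints by linear interpolation between flanking doses. Not reached: highest tested concentration assigned. At the GI50, growth is halved.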 Activity calls are given as the source filed them. Cut-off read from the data, not from the text of the source: active = GI50 up to about 1.1 µM and inactive = higher.

How the values were obtained:
Test in all cases: DTP human tumour cell line panel, 48 h
[1] = test system: 786-0
[2] = test system: A498
[3] = test system: A549
[4] = test system: ACHN
[5] = test system: BT-549
[6] = test system: CAKI-1
[7] = test system: CCRF-CEM
[8] = test system: COLO 205
[9] = test system: DU-145
[10] = test system: EKVX
[11] = test system: HCC 2998
[12] = test system: HCT-116
[13] = test system: HCT-15
[14] = test system: HL-60
[15] = test system: HOP-62
[16] = test system: HOP-92
[17] = test system: HT-29
[18] = test system: Hs-578T
[19] = test system: IGROV-1
[20] = test system: K562
[21] = test system: KM12
[22] = test system: LOX IMVI
[23] = test system: M14
[24] = test system: MCF7
[25] = test system: MDA-MB-231
[26] = test system: MDA-MB-435
[27] = test system: MDA-N
[28] = test system: MOLT-4
[29] = test system: Malme-3M
[30] = test system: NCI-H226
[31] = test system: NCI-H23
[32] = test system: NCI-H460
[33] = test system: NCI-H522
[34] = test system: NCI/ADR-RES
[35] = test system: OVCAR-3
[36] = test system: OVCAR-4
[37] = test system: OVCAR-5
[38] = test system: OVCAR-8
[39] = test system: PC-3
[40] = test system: RPMI-8226
[41] = test system: RXF 393
[42] = test system: SF-268
[43] = test system: SF-295
[44] = test system: SF-539
[45] = test system: SK-MEL-28
[46] = test system: SK-MEL-2
[47] = test system: SK-MEL-5
[48] = test system: SK-OV-3
[49] = test system: SN12C
[50] = test system: SNB-19
[51] = test system: SNB-75
[52] = test system: SR
[53] = test system: SW-620
[54] = test system: T47D
[55] = test system: TK-10
[56] = test system: U-251
[57] = test system: UACC-257
[58] = test system: UACC-62
[59] = test system: UO-31

Measured: GI50

Cn1cc(-c2n[nH]c(-c3ccc(Cl)cc3)nc2=O)c2ccccc21
inactive: [1] 3.38 µM | [2] 2.04 µM | [3] 3.94 µM | [4] 7.76 µM | [5] 5.57 µM | [6] 1.36 µM | [7] 1.77 µM | [8] 2.07 µM | [9] 3.2 µM | [10] 4.41 µM | [11] 1.57 µM | [12] 2.12 µM | [15] 5.36 µM | [16] 12.3 µM | [17] 2.19 µM | [18] 2.76 µM | [19] 4.58 µM | [22] 5.64 µM | [23] 3.18 µM | [24] 1.8 µM | [25] 15.5 µM | [28] 1.6 µM | [29] 3.44 µM | [30] 3.84 µM | [31] 4.28 µM | [32] 2.33 µM | [34] 1.69 µM | [36] 15.1 µM | [37] 4.34 µM | [38] 5.62 µM | [39] 2.3 µM | [40] 3.23 µM | [41] 2.4 µM | [42] 7.59 µM | [43] 1.43 µM | [45] > 71.1 µM | [46] 3.4 µM | [47] 1.35 µM | [48] 4.31 µM | [49] 6.34 µM | [50] 3.03 µM | [51] 3.11 µM | [53] 1.91 µM | [54] 9.59 µM | [55] 11.8 µM | [56] 2.31 µM | [57] 7.53 µM | [58] 1.73 µM
active: [14] 0.671 µM | [20] 0.544 µM | [21] 0.776 µM | [26] 0.184 µM | [27] 0.399 µM | [33] 0.959 µM | [35] 0.979 µM | [44] 1.08 µM | [52] 0.774 µM | [59] 1.06 µM
1.1 µM: [13]

Nc1nc(Cl)cc(NCC2(CO)CCCC2)n1
> 100 µM: [13]
inactive: [1] > 100 µM | [2] > 100 µM | [3] > 100 µM | [4] > 100 µM | [5] > 100 µM | [6] > 100 µM | [7] > 100 µM | [8] > 100 µM | [9] > 100 µM | [10] > 100 µM | [11] > 100 µM | [12] > 100 µM | [14] > 100 µM | [15] > 100 µM | [16] 52.5 µM | [17] > 100 µM | [18] > 100 µM | [19] > 100 µM | [20] > 100 µM | [21] > 100 µM | [22] 59.7 µM | [23] > 100 µM | [24] 75.2 µM | [25] > 100 µM | [26] > 100 µM | [27] > 100 µM | [28] > 100 µM | [29] > 100 µM | [30] > 100 µM | [31] 65.6 µM | [32] > 100 µM | [33] 49.1 µM | [34] 55.8 µM | [35] > 100 µM | [36] 19 µM | [37] > 100 µM | [38] > 100 µM | [39] > 100 µM | [40] > 100 µM | [41] > 100 µM | [42] > 100 µM | [43] > 100 µM | [44] > 100 µM | [45] > 100 µM | [46] > 100 µM | [47] 80.4 µM | [48] > 100 µM | [49] > 100 µM | [50] > 100 µM | [51] 85.7 µM | [52] > 100 µM | [53] > 100 µM | [54] > 100 µM | [55] > 100 µM | [56] > 100 µM | [57] 65.8 µM | [58] > 100 µM | [59] > 100 µM
